# Measurements as given in US5190961A, “Thiourea derivatives and antimicrobial agent and antulcer agent containing the same” (Terumo Kabushiki Kaisha, priority 1990, dated 1993).
# Legend:
# [1] = test system: Helicobacter pylori; experiment: Antimicrobial activity against Helicobacter pylori (MIC); assay type: cell-based, Helicobacter pylori strain NCTC 11916; details: NCTC11916, strain NCTC 11916, twofold dilution, 37° C., 3-5 days, O2 about 5%
# Method: (3) Antimicrobial activity against Helicobacter pylori
# Antimicrobial activity of the thiourea derivatives according to the invention against Helicobacter pylori (or Campylobacter pylori) was evaluated by employing strain NCTC 11916 as a Helicobacter test organism and determining MIC (minimum inhibitory concentration) for the strain with the thiourea derivative.
# The Helicobacter pylori was pre-incubated in a plate medium for 3-5 days. The medium was prepared by dissolving 38 g of a Mueller-Hinton medium (manufactured by Difco) in an appropriate amount of distilled water, sterilizing the solution in an autoclave, adding to the solution 50 ml of a horse hemolysis solution (manufactured by Nippon Seibutu Zairyou Center: Horse defibrinized blood, hemolyzed by a lyophilization treatment) and 2 ml of Skirrow, a Campylobacter selective supplement (manufactured by OXOID) containing vancomycin (5 mg), trimethoprim (2.5 mg) and polymyxin B (1250 IU) per vial (2 ml), and further an appropriate amount of distilled water to a volume of 1L in total and expanding and solidifying the solution on a dish. These antibiotics were contained for inhibition of the growth of microorganism other than Helicobacter pylori. The Helicobacter pylori pre-incubated under slightly aerobic conditions (an O2 concentration of about 5%) at 37° C. for 3-5 days was suspended in a physiological saline solution in a concentration of approximately 10^8 organisms/ml. Approximately 10-20 μl of the suspension was inoculated on a medium for MIC measurement in cross streaks. […] The DMSO solution was formed by the twofold dilution method. As in the pre-incubation, the Helicobacter pylori was cultured under slightly aerobic conditions at 37° C. for 3-5 days. After completion of the culture, growth of the microoranisms on the streaks was visually determined. The minimum concentration of the thiourea derivative in which no growth was observed was taken as MIC.
# It was confirmed that the thiourea derivatives of the invention not shown in the table also have a similar antimicrobial activity.
# [2] = test system: ethanol peptic ulcer; experiment: Inhibitory action against ethanol peptic ulcer; assay type: in vivo; details: Rattus norvegicus; SD male rats, 32 mg/kg oral, 1 hour before ethanol 0.5 ml/100 g; read-out: Inhibitory action against ethanol peptic ulcer, Percent inhibition of p.u. formation
# Method: (2) Inhibitory action against ethanol peptic ulcer
# SD male rats (weighing 200-300 g) were fasted for 24 hours before oral administration of a thiourea derivative of the invention at a dose of 32 mg/kg bodyweight. One hour later, ethanol was orally given in a volume of 0.5 ml/100 g bodyweight. One hour after treating with ethanol, the rat was sacrificed with ether, and the stomach was excised and treated with formalin. Area (mm^2) of the lesions developed in the glandular stomach area was then measured. Results were expressed in sum of the lesions per animal which was referred to as peptic ulcer index.
# (§1) It was confirmed that the thiourea derivatives of the invention not shown in the table also have a similar antiulcer activity.
# Percent inhibition of the peptic ulcer formation (%) as shown in the table was calculated according to the same equation as mentioned above.
# [3] = test system: peptic ulcer induced by water immersion restraint stress; experiment: Inhibitory action against the peptic ulcer induced by water immersion restraint stress; assay type: in vivo; details: Rattus norvegicus; SD male rats, 32 mg/kg oral, water immersion restraint stress 23° C., 7 hours; read-out: Inhibitory action against stress peptic ulcer, Percent inhibition of p.u. formation
# Method: (1) Inhibitory action against the peptic ulcer induced by water immersion restraint stress
# SD male rats (weighing 200-300 g) were fasted for 24 hours before oral administration of a thiourea derivative of the invention at a dose of 32 mg/kg bodyweight. One hour later, the animal was put in a stress cage and loaded with water immersion restraint stress in a water bath at 23° C. Seven hours after loading with the stress, the rate was sacrificed with ether, and the stomach was excised and treated with formalin. Area (mm^2 ) of the lesions developed in the glandular stomach area was then measured. Results were expressed in sum of the lesions per animal which was referred to as peptic ulcer index.
# as §1
# Percent inhibition of the peptic ulcer formation (%) as shown in the table was calculated according to the following equation: [formula]
SMILES,MIC [1],inhibition in vivo at 32 mg/kg [2],inhibition in vivo at 32 mg/kg [3]
"O=C(CCCNC(=S)Nc1ccccc1)NCCCOc1cccc(CN2CCCCC2)c1 [Example 3, 1-[3-[N-(3-[3-(piperidinomethyl)phenoxy]propyl]carbamoyl]propyl]-3-phenylthiourea]",12.5 mg/L,88.7%,80.5%
O=C(CCCNC(=S)Nc1cccnc1)NCCCOc1cccc(CN2CCCCC2)c1 [Example 8],12.5 mg/L,65%,82.2%
"CC(C)c1ccc(NC(=S)NCCCC(=O)NCCCOc2cccc(CN3CCCCC3)c2)cc1 [Example 13, 1-[3-[N-[3-[3-(piperidinomethyl)phenoxy]propyl]carbamoyl]propyl]-3-(p-isopropylphenyl)thiourea]",6.25 mg/L,90.2%,77.3%
"COc1ccccc1NC(=S)NCCCC(=O)NCCCOc1cccc(CN2CCCCC2)c1 [Example 14, 1-[3-[N-[3-[3-(piperidinomethyl)phenoxy]propyl]-carbamoyl]propyl]-3-(O-methoxyphenyl)thiourea]",6.25 mg/L,94.3%,91.2%
"COc1cccc(NC(=S)NCCCC(=O)NCCCOc2cccc(CN3CCCCC3)c2)c1 [Example 15, 1-[3-[N-[3-[3-(piperidinomethyl)phenoxy]propyl]carbamoyl]propyl]-3-(3-methoxyphenyl)thiourea]",6.25 mg/L,92.1%,78.3%
"CCCCOc1ccccc1NC(=S)NCCCC(=O)NCCCOc1cccc(CN2CCCCC2)c1 [Example 16, 1-[3-[N-[3-[3-(piperidinomethyl)phenoxy]propyl]carbamoyl]propyl]-3-(O-n-buthoxyphenyl)thiourea]",6.25 mg/L,93.3%,71.7%
"O=C(CCCNC(=S)Nc1ccccc1Oc1ccccc1)NCCCOc1cccc(CN2CCCCC2)c1 [Example 17, 1-[3-[N-[3-[3-(piperidinomethyl)phenoxy]propyl]carbamoyl]propyl]-3-(O-phenoxyphenyl)thiourea]",12.5 mg/L,73.3%,62.2%
"COc1cc(NC(=S)NCCCC(=O)NCCCOc2cccc(CN3CCCCC3)c2)cc(OC)c1OC [Example 18, 1-[3-[N-[3-[3-(piperidinomethyl)phenoxy]propyl]carbamoyl]propyl]-3-(3,4,5-trimethoxyphenyl)thiourea]",6.25 mg/L,83.8%,60.6%
"COc1cccc(C)c1NC(=S)NCCCC(=O)NCCCOc1cccc(CN2CCCCC2)c1 [Example 19, 1-[3-[N-[3-[3-(piperidinomethyl)phenoxy]propyl]carbamoyl]propyl]-3-(2-methoxy-6-methylphenyl)thiourea]",6.25 mg/L,94.6%,90.1%
"N#Cc1cccc(NC(=S)NCCCC(=O)NCCCOc2cccc(CN3CCCCC3)c2)c1 [Example 20, 1-[3-[N-[3-[3-(piperidinomethyl)phenoxy]propyl]carbamoyl]propyl]-3-(3-cyanophenyl)thiourea]",12.5 mg/L,83.5%,70.2%
"CSc1ccccc1NC(=S)NCCCC(=O)NCCCOc1cccc(CN2CCCCC2)c1 [Example 21, 1-[3-[N-[3-[3-(piperidinomethyl)phenoxy]propyl]carbamoyl]propyl]-3-(2-methylthiophenyl)thiourea]",6.25 mg/L,81.1%,85.5%
"O=C(CCCNC(=S)Nc1ccccc1C(F)(F)F)NCCCOc1cccc(CN2CCCCC2)c1 [Example 22, 1-[3-[N-[3-[3-(piperidinomethyl)phenoxy]propyl]carbamoyl]propyl]-3-(2-trifluoromethylphenyl)thiourea]",6.25 mg/L,76.4%,83.3%
"O=C(CCCNC(=S)Nc1ccccc1[N+](=O)[O-])NCCCOc1cccc(CN2CCCCC2)c1 [Example 23, 1-[3-[N-[3-[3-(piperidinomethyl)phenoxy]propyl]carbamoyl]propyl]-3-(O-nitrophenyl)thiourea]",6.25 mg/L,72.3%,76.4%
"COCOc1ccccc1NC(=S)NCCCC(=O)NCCCOc1cccc(CN2CCCCC2)c1 [Example 24, 1-[3-[N-[3-[3-(piperidinomethyl)phenoxy]propyl]carbamoyl]propyl]-3-(2-methoxymethoxyphenyl)thiourea]",12.5 mg/L,70.3%,60.3%

# Continued, in another order:
MIC [1],SMILES,inhibition in vivo at 32 mg/kg [2],inhibition in vivo at 32 mg/kg [3]
6.25 mg/L,"CNC(=S)NCCCC(=O)NCCCOc1cccc(CN2CCCCC2)c1 [Example 1, 1-[3-[N-[3-[3-(piperidinomethyl)phenoxy]propyl]carbamoyl]propyl]-3-methylthiourea]",51.4%,92.1%
6.25 mg/L,CCCCNC(=S)NCCCC(=O)NCCCOc1cccc(CN2CCCCC2)c1 [Example 2],75.7%,67.1%
6.25 mg/L,"O=C(CCCNC(=S)Nc1ccc(Cl)cc1)NCCCOc1cccc(CN2CCCCC2)c1 [Example 4, 1-[3-[N-[3-[3-(piperidinomethyl)phenoxy]propyl]carbamoyl]propyl]-3-(p-chlorophenyl)thiourea]",78.2%,74.6%
6.25 mg/L,"O=C(CCCNC(=S)NC1CCCCC1)NCCCOc1cccc(CN2CCCCC2)c1 [Example 5, 1-[3-[N-[3-[3-(piperidinomethyl)phenoxy]propyl]carbamoyl]propyl]-3-cyclohexylthiourea]",82.3%,70.5%
6.25 mg/L,O=C(CCCNC(=S)NCCc1ccccc1)NCCCOc1cccc(CN2CCCCC2)c1 [Example 6],84.4%,76.9%
6.25 mg/L,"O=C(CCCNC(=S)Nc1cccc2ccccc12)NCCCOc1cccc(CN2CCCCC2)c1 [Example 7, 1-[3-[N-[3-[3-(piperidinomethyl)phenoxy]-propyl]carbamoyl]propyl]-3-(1-naphthyl)thiourea]",92%,88.3%
6.25 mg/L,"O=C(CCCNC(=S)Nc1ccccc1)NCCCOc1cccc(CN2CCCC2)c1 [Example 9, 1-[3-[N-[3-[3-(pyrrolidinomethyl)phenoxy]propyl]carbamoyl]propyl]-3-phenylthiourea]",77.9%,58.6%
6.25 mg/L,"Cc1ccccc1NC(=S)NCCCC(=O)NCCCOc1cccc(CN2CCCCC2)c1 [Example 10, 1-[3-[N-[3-[3-(piperidinomethyl)phenoxyl]propyl]carbamoyl]propyl]-3-(O-methylphenyl)thiourea]",94.2%,82.2%
6.25 mg/L,"Cc1cc(C)cc(NC(=S)NCCCC(=O)NCCCOc2cccc(CN3CCCCC3)c2)c1 [Example 11, 1-[3-[N-[3-[3-(piperidinomethyl)phenoxy]propyl]carbamoyl]propyl]-3-(3,5-dimethylphenyl)thiourea]",92.8%,85.5%
6.25 mg/L,"Cc1cc(C)c(NC(=S)NCCCC(=O)NCCCOc2cccc(CN3CCCCC3)c2)c(C)c1 [Example 12, 1-[3-[N-[3-[3-(piperidinomethyl)phenoxy]propyl]carbamoyl]propyl]-3-(2,4,6-trimethylphenyl)thiourea]",80.2%,77.1%
